Measured values taken from patent publication US12139520B2 (priority 2020, dated 2024).
Bridge positions count the residues as written; N and C are the ends. Square brackets hold non-standard residues; d marks the D form. Peptide text beside a SMILES is read from it. Hyp = O=C(O)[C@@H]1C[C@@H](O)CN1; Cit = NC(=O)NCCC[C@H](N)C(=O)O

Assay: Physical stability of peptide analogues (Thioflavin T fibrillation)
Type: physicochemical
Settings: maximum ThT signal normalized between hAMY maximum and buffer background; 40° C., shaking, four days; pH 7 per table title
Method: General Protocols for Determination of Physical Stability of Peptide Analogues
Peptides were dissolved in buffers (50 mM sodium acetate at pH 4 or 50 mM sodium phosphate at pH 7) and incubated for one hour. The samples were then divided into two replicates of 80 μl in a black 384 well plate (μ-clear, Greiner Bio-One) and mixed with Thioflavin T (ThT) to a final concentration of 4 μM. The plate was sealed and placed in a plate reader (CLARIOstar, BMG) where the temperature was set at 40° C. during the course of the experiment. The samples were further stressed by shaking the plate at 700 rpm (linear) for five minutes before every measurement. The fluorescence was measured every 10 min for four days by exciting the ThT at 450 nm and measuring the emission at 480 nm. For each peptide, the ThT signal over time was smoothened using Local Polynomial Regression fitting (LOESS) as implemented in the statistical programming environment R. For the smoothened data, the maximum ThT signal was normalized in percent between the maximum ThT signal for hAMY and the buffer background.

SMILES | Max ThT signal (%)
CC[C@H](C)[C@H](NC(=O)[C@H](CCC(N)=O)NC(=O)[C@H](Cc1c[nH]cn1)NC(=O)[C@H](C)NC(=O)[C@H](CC(C)C)NC(=O)[C@H](CCCNC(=N)N)NC(=O)[C@H](CCC(N)=O)NC(=O)[C@@H](NC(=O)[C@@H](NC(=O)[C@@H]1CSSC[C@H](NC(=O)CN)C(=O)N[C@@H](CCCNC(=N)N)C(=O)N[C@@H]([C@@H](C)O)C(=O)NCC(=O)N[C@@H]([C@@H](C)O)C(=O)N1)[C@@H](C)O)C(C)C)C(=O)N[C@@H](Cc1c[nH]cn1)C(=O)N[C@@H](CCC(N)=O)C(=O)N[C@@H](Cc1ccccc1)C(=O)N[C@H](C(=O)N[C@@H](CC(N)=O)C(=O)N[C@@H](CCCCN)C(=O)N[C@@H](CC(=O)O)C(=O)N[C@@H](CCCCN)C(=O)N[C@@H](CC(=O)O)C(=O)N[C@@H](CC(N)=O)C(=O)N[C@H](C(=O)N[C@@H](C)C(=O)N1CCC[C@H]1C(=O)N[C@@H](CCCNC(=N)N)C(=O)N[C@@H](CO)C(=O)N[C@@H](CCCCN)C(=O)N[C@H](C(=O)N[C@@H](CO)C(=O)N1CCC[C@H]1C(=O)N[C@@H](CCC(N)=O)C(=O)N[C@H](C(=O)N1C[C@H](O)C[C@H]1C(N)=O)[C@@H](C)O)[C@@H](C)CC)C(C)C)[C@@H](C)O [compound 227] (H-GCRTGTCTVQRLAHQIHQFTNKDKDNVAPRSKISPQT[Hyp]-NH2; disulfide 2-7; N-terminus assumed) | 8.500%
CC[C@H](C)[C@H](NC(=O)[C@H](CCC(N)=O)NC(=O)[C@H](Cc1c[nH]cn1)NC(=O)[C@H](C)NC(=O)[C@H](CC(C)C)NC(=O)[C@H](CCCNC(=N)N)NC(=O)[C@H](CCC(N)=O)NC(=O)[C@@H](NC(=O)[C@@H](NC(=O)[C@@H]1CSSC[C@H](NC(=O)CN)C(=O)N[C@@H](CCCNC(=N)N)C(=O)N[C@@H]([C@@H](C)O)C(=O)NCC(=O)N[C@@H]([C@@H](C)O)C(=O)N1)[C@@H](C)O)C(C)C)C(=O)N[C@@H](Cc1ccc(O)cc1)C(=O)N[C@@H](CCC(N)=O)C(=O)N[C@@H](Cc1ccccc1)C(=O)N[C@H](C(=O)N[C@@H](CC(=O)O)C(=O)N[C@@H](CCCCN)C(=O)N[C@@H](Cc1ccccc1)C(=O)N[C@@H](CCCCN)C(=O)N[C@@H](CC(=O)O)C(=O)N[C@@H](CC(N)=O)C(=O)N[C@H](C(=O)N[C@@H](C)C(=O)N1CCC[C@H]1C(=O)N[C@@H](CCCNC(=N)N)C(=O)N[C@@H](CO)C(=O)N[C@@H](CCCCN)C(=O)N[C@H](C(=O)N[C@@H](CO)C(=O)N1CCC[C@H]1C(=O)N[C@@H](CCC(N)=O)C(=O)N[C@H](C(=O)N1CCC[C@H]1C(N)=O)[C@@H](C)O)[C@@H](C)CC)C(C)C)[C@@H](C)O [compound 235] (H-GCRTGTCTVQRLAHQIYQFTDKFKDNVAPRSKISPQTP-NH2; disulfide 2-7; N-terminus assumed) | 0.800%
CC[C@H](C)[C@H](NC(=O)[C@H](CCC(N)=O)NC(=O)[C@H](Cc1c[nH]cn1)NC(=O)[C@H](C)NC(=O)[C@H](CC(C)C)NC(=O)[C@H](CCCNC(=N)N)NC(=O)[C@H](CCC(N)=O)NC(=O)[C@@H](NC(=O)[C@@H](NC(=O)[C@@H]1CSSC[C@H](NC(=O)CN)C(=O)N[C@@H](CCCNC(=N)N)C(=O)N[C@@H]([C@@H](C)O)C(=O)NCC(=O)N[C@@H]([C@@H](C)O)C(=O)N1)[C@@H](C)O)C(C)C)C(=O)N[C@@H](Cc1ccc(O)cc1)C(=O)N[C@@H](CCC(N)=O)C(=O)N[C@@H](Cc1ccccc1)C(=O)N[C@H](C(=O)N[C@@H](CC(=O)O)C(=O)N[C@@H](CCCCN)C(=O)N[C@@H](Cc1ccccc1)C(=O)N[C@@H](CCCCN)C(=O)N[C@@H](CC(=O)O)C(=O)N[C@@H](CC(N)=O)C(=O)N[C@H](C(=O)N[C@@H](C)C(=O)N1CCC[C@H]1C(=O)N[C@@H](CCCNC(=N)N)C(=O)N[C@@H](CO)C(=O)N[C@@H](CCCCN)C(=O)N[C@H](C(=O)N[C@@H](CO)C(=O)N1CCC[C@H]1C(=O)N[C@@H](CCC(N)=O)C(=O)N[C@@H](CCSC)C(=O)N1C[C@H](O)C[C@H]1C(N)=O)[C@@H](C)CC)C(C)C)[C@@H](C)O [compound 236] (H-GCRTGTCTVQRLAHQIYQFTDKFKDNVAPRSKISPQM[Hyp]-NH2; disulfide 2-7; N-terminus assumed) | 0.600%
CC[C@H](C)[C@H](NC(=O)[C@H](CCC(N)=O)NC(=O)[C@H](Cc1c[nH]cn1)NC(=O)[C@H](C)NC(=O)[C@H](CC(C)C)NC(=O)[C@H](CCCNC(=N)N)NC(=O)[C@H](CCC(N)=O)NC(=O)[C@@H](NC(=O)[C@@H](NC(=O)[C@@H]1CSSC[C@H](NC(=O)CN)C(=O)N[C@@H](CCCNC(=N)N)C(=O)N[C@@H]([C@@H](C)O)C(=O)NCC(=O)N[C@@H]([C@@H](C)O)C(=O)N1)[C@@H](C)O)C(C)C)C(=O)N[C@@H](Cc1ccc(O)cc1)C(=O)N[C@@H](CCC(N)=O)C(=O)N[C@@H](Cc1ccccc1)C(=O)N[C@H](C(=O)N[C@@H](CC(=O)O)C(=O)N[C@@H](CCCCN)C(=O)N[C@@H](Cc1ccccc1)C(=O)N[C@@H](CCCCN)C(=O)N[C@@H](CC(=O)O)C(=O)N[C@@H](CC(N)=O)C(=O)N[C@H](C(=O)N[C@@H](C)C(=O)N1CCC[C@H]1C(=O)N[C@@H](CCCNC(=N)N)C(=O)N[C@@H](CO)C(=O)N[C@@H](CCCCN)C(=O)N[C@H](C(=O)N[C@@H](CO)C(=O)N1CCC[C@H]1C(=O)N[C@@H](CCC(N)=O)C(=O)N[C@H](C(=O)N[C@@H](C)C(N)=O)[C@@H](C)O)[C@@H](C)CC)C(C)C)[C@@H](C)O [compound 241] (H-GCRTGTCTVQRLAHQIYQFTDKFKDNVAPRSKISPQTA-NH2; disulfide 2-7; N-terminus assumed) | 0.900%

Other lines, results leading:

Max ThT signal (%) | SMILES
4.700% | CC[C@H](C)[C@H](NC(=O)[C@H](C)NC(=O)CNC(=O)[C@H](CC(=O)O)NC(=O)[C@H](CCCCN)NC(=O)[C@H](CC(=O)O)NC(=O)[C@@H](NC(=O)[C@H](Cc1ccccc1)NC(=O)[C@H](CCC(N)=O)NC(=O)[C@H](Cc1ccc(O)cc1)NC(=O)[C@H](CC(C)C)NC(=O)[C@H](Cc1ccccc1)NC(=O)[C@H](Cc1c[nH]cn1)NC(=O)[C@H](C)NC(=O)[C@H](CC(C)C)NC(=O)[C@H](CCCNC(N)=O)NC(=O)[C@H](CCC(N)=O)NC(=O)[C@@H](NC(=O)[C@@H](NC(=O)[C@@H]1CSSC[C@H](NC(=O)CN)C(=O)N[C@@H](CCCNC(=N)N)C(=O)N[C@@H](Cc2ccccc2)C(=O)NCC(=O)N[C@@H]([C@@H](C)O)C(=O)N1)[C@@H](C)O)C(C)C)[C@@H](C)O)C(=O)N[C@@H](C)C(=O)N1CCC[C@H]1C(=O)N[C@@H](CCCNC(=N)N)C(=O)N[C@H](C(=O)N[C@@H](CCCCN)C(=O)N[C@H](C(=O)NCC(=O)N[C@@H](CO)C(=O)N[C@@H](CCC(N)=O)C(=O)NCC(=O)N[C@@H](Cc1ccc(O)cc1)C(N)=O)[C@@H](C)CC)[C@@H](C)O [compound 282] (H-GCRFGTCTVQ[Cit]LAHFLYQFTDKDGAIAPRTKIGSQGY-NH2; disulfide 2-7; N-terminus assumed)
15.700% | CC[C@H](C)[C@H](NC(=O)[C@H](CCC(N)=O)NC(=O)[C@H](Cc1c[nH]cn1)NC(=O)[C@H](C)NC(=O)[C@H](CC(C)C)NC(=O)[C@H](Cc1c[nH]c2ccccc12)NC(=O)[C@H](CCC(N)=O)NC(=O)[C@@H](NC(=O)[C@@H](NC(=O)[C@@H]1CSSC[C@H](NC(=O)CN)C(=O)N[C@@H](CCCNC(=N)N)C(=O)N[C@@H](Cc2ccccc2)C(=O)NCC(=O)N[C@@H]([C@@H](C)O)C(=O)N1)[C@@H](C)O)C(C)C)C(=O)N[C@@H](Cc1ccc(O)cc1)C(=O)N[C@@H](CCC(N)=O)C(=O)N[C@@H](Cc1ccccc1)C(=O)N[C@H](C(=O)N[C@@H](CC(=O)O)C(=O)N[C@@H](CCCCN)C(=O)N[C@@H](CC(=O)O)C(=O)N[C@@H](CCCCN)C(=O)N[C@@H](CC(=O)O)C(=O)N[C@@H](CC(N)=O)C(=O)N[C@H](C(=O)N[C@@H](C)C(=O)N1CCC[C@H]1C(=O)N[C@@H](CCCNC(=N)N)C(=O)N[C@H](C(=O)N[C@@H](CCCCN)C(=O)N[C@H](C(=O)N[C@@H](CO)C(=O)N1CCC[C@H]1C(=O)N[C@@H](CCC(N)=O)C(=O)NCC(=O)N1C[C@H](O)C[C@H]1C(N)=O)[C@@H](C)CC)[C@@H](C)O)C(C)C)[C@@H](C)O [compound 350] (H-GCRFGTCTVQWLAHQIYQFTDKDKDNVAPRTKISPQG[Hyp]-NH2; disulfide 2-7; N-terminus assumed)
